These results are taken from publication PMC6826623 (2019).

The structures appear in SMILES notation.

Test in all cases: UV-Vis absorption titration at 316 nm
The test system of assay [1] is c-MYC (DNA, G4) TGGGGAGGGTGGGGAGGGTGGGGAAGG
To be noted: 100 mM K+, 50 mM Tris-HCl, pH 7.4, parallel G4, per base.

The subject of assay [2] is 2HY9 (DNA, G4) AAAGGGTTAGGGTTAGGGTTAGGGAA
Particulars: 100 mM K+, 50 mM Tris-HCl, pH 7.4, hybrid G4, per base.

Assay [3] concerns hTelo (DNA, G4) AGGGTTAGGGTTAGGGTTAGGG
To be noted: 50 mM Tris-HCl.

On to `COc1ccc2c(c[n+](C)c3c4cc5c(cc4ccc23)OCO5)c1OC`, for which the Kb entry in assay [1] is recorded as “(1.0 ± 0.1) × 10^5 M^-1”; in assay [2], “(1.1 ± 0.1) × 10^5 M^-1”; in assay [3] (100 mM K+, pH 7.4, 40% (w/v) PEG 200, parallel G4, per base), “(3.5 ± 0.9) × 10^5 M^-1”; in assay [3] (100 mM Na+, pH 7.4, antiparallel G4, per base), “(2.69 ± 0.06) × 10^5 M^-1”.
